# Assays:
# Assay in all cases: Protein kinase inhibition assay
# Format in all cases: biochemical
# PKCμ(h) = PKCμ(h) (Homo sapiens, UniProt Q15139); details: read-out: percent residual activity of PKCμ(h)
# Procedure: (§1) Certain compounds were tested for activity in protein kinase inhibition assays. All substrates were dissolved and diluted to working stocks in de-ionized water, apart from histone H1 (10× working stock in 20 mM MOPS pH 7.0), PDKtide (10× working stock in 50 mM Tris pH 7.0) ATF2 (which is typically stored at a 20× working stock in 50 mM Tris pH 7.5, 150 mM NaCl, 0.1 mM EGTA, 0.03% Brij-35, 50% glycerol, 1 mM benzamidine, 0.2 mM PMSF and 0.1% R-mercaptoethanol), KKLNRTLSFAEPG (SEQ ID NO:203) and RRRLSFAEPG (SEQ ID NO:204) (50 mM HEPES pH 7.4) and GGEEEEYFELVKKKK (SEQ ID NO:205) (20 mM MOPS pH 7.0). All kinases were pre-diluted to a 10× working concentration prior to addition into the assay. The composition of the dilution buffer for each kinase is detailed below.
# (§2) In a final reaction volume of 25 μl, PKCμ (h) (5-10 mU) is incubated with 20 mM REPES pH 7.4, 0.03% Triton X-100, 30 μM KKLNRTLSVA (SEQ ID NO:212), 10 mM MgAcetate and [gamma-33P-ATP] (specific activity approx. 500 cpm/pmol, concentration as required). The reaction is initiated by the addition of the MgATP mix. After incubation for 40 minutes at room temperature, the reaction is stopped by the addition of 5 μl of a 3% phosphoric acid solution. 10 μl of the reaction is then spotted onto a P30 filtermat and washed three times for 5 minutes in 75 mM phosphoric acid and once in methanol prior to drying and scintillation counting.
# EphB2(h) = EphB2(h) (Homo sapiens, UniProt P29323); details: read-out: percent residual activity of EphB2(h)
# Procedure: as §1
# as §2, with “EphB2” for “PKCμ”, “8” for “20”, “MOPS” for “REPES”, “7.0, 0.2 mM EDTA, 10 mM MnCl2, 0.1 mg/ml poly(Glu, Tyr) 4:1,” for “7.4, 0.03% Triton X-100, 30 μM KKLNRTLSVA (SEQ ID NO:212),”, “Filtermat A” for “P30 filtermat”
# SAPK2b(h) = SAPK2b(h) (Homo sapiens, UniProt Q15759); details: read-out: percent residual activity of SAPK2b(h)
# Procedure: as §1
# as §2, with “SAPK2b” for “PKCμ”, “25” for “20”, “Tris” for “REPES”, “7.5, 0.02 mM EGTA, 0.33 mg/ml myelin basic protein,” for “7.4, 0.03% Triton X-100, 30 μM KKLNRTLSVA (SEQ ID NO:212),”
# PKD2(h) = PKD2(h) (Homo sapiens, UniProt Q9BZL6); details: read-out: percent residual activity of PKD2(h)
# Procedure: as §1
# as §2, with “PKD2” for “PKCμ”, “HEPES” for “REPES”, “NO:212)” for “NO:212),”
# Syk(h) = Syk(h) (Homo sapiens, UniProt P43405); details: read-out: percent residual activity of Syk(h)
# Procedure: as §1
# (§3) In a final reaction volume of 25 μl, Syk (h) (5-10 mU) is incubated with 50 mM Tris pH 7.5, 0.1 mM EGTA, 0.1 mM Na3VO4, 0.1% R-mercaptoethanol, 0.1 mg/ml poly(Glu, Tyr) 4:1, 10 mM MgAcetate and [gamma-33P-ATP] (specific activity approx. 500 cpm/pmol, concentration as required). The reaction is initiated by the addition of the MgATP mix. After incubation for 40 minutes at room temperature, the reaction is stopped by the addition of 5 μl of a 3% phosphoric acid solution. […]
# PKCι(h) = PKCι(h) (Homo sapiens, UniProt P41743); details: read-out: percent residual activity of PKCι(h)
# Procedure: as §1
# as §3, with “PKCι” for “Syk”, “with 20 mM HEPES pH 7.4, 0.03%. Triton X-100,” for “with”, “μM ERMRPRKRQGSVRRRV (SEQ ID NO:224),” for “mM Tris pH 7.5, 0.1 mM EGTA, 0.1 mM Na3VO4, 0.1% R-mercaptoethanol, 0.1 mg/ml poly(Glu, Tyr) 4:1,”
# Chain of PKCμ(h) (Q15139 whole entry): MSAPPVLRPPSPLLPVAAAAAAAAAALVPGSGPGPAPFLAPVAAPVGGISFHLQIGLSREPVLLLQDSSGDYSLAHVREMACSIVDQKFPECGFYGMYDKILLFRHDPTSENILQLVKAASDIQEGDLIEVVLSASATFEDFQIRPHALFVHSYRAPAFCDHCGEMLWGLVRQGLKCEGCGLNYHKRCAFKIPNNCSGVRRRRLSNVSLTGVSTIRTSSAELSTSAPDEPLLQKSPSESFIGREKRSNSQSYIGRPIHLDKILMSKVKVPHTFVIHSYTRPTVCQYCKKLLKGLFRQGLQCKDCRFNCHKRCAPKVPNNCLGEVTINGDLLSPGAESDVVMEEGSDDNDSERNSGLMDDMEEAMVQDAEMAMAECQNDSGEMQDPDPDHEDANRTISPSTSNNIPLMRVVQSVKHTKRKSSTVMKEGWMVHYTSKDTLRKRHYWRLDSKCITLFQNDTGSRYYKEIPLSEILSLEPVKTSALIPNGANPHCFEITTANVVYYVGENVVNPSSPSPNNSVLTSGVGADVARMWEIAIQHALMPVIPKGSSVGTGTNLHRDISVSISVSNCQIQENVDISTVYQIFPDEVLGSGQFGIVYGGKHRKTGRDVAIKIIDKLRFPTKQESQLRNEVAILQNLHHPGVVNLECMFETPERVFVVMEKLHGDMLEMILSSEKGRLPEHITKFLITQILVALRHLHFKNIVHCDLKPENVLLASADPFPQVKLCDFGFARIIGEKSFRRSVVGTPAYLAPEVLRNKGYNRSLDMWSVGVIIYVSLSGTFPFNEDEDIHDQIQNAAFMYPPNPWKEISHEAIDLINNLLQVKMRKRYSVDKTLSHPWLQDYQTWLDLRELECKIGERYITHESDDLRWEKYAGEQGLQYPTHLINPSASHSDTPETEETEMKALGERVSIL
# Chain of SAPK2b(h) (Q15759 whole entry): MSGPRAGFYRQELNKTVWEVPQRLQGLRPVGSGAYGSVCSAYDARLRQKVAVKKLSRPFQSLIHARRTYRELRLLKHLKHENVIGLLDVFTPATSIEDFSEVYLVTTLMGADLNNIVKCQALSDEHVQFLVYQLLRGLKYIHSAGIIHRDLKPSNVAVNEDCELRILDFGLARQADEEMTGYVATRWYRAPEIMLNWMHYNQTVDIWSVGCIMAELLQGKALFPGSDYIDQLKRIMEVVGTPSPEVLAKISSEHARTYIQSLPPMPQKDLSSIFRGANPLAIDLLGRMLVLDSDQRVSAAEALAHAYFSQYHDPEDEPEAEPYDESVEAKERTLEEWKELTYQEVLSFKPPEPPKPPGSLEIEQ
# Chain of PKCι(h) (P41743 whole entry): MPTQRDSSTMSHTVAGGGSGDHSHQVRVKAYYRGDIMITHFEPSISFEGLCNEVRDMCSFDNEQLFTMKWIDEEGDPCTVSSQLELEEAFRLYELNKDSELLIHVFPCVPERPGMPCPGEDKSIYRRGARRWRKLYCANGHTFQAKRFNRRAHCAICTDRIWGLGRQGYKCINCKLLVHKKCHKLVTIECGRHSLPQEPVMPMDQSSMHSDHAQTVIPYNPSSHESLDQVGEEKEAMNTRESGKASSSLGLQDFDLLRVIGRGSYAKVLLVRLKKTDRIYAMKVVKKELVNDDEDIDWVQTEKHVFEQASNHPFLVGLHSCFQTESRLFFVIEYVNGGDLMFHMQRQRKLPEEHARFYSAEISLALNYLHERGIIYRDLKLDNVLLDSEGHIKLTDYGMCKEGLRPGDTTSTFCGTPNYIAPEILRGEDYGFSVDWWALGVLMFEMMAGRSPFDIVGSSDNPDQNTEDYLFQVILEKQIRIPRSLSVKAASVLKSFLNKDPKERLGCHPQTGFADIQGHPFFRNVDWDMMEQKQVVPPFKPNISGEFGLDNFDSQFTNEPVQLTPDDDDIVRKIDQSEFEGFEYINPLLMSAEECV
# Chain of PKD2(h) (Q9BZL6 whole entry): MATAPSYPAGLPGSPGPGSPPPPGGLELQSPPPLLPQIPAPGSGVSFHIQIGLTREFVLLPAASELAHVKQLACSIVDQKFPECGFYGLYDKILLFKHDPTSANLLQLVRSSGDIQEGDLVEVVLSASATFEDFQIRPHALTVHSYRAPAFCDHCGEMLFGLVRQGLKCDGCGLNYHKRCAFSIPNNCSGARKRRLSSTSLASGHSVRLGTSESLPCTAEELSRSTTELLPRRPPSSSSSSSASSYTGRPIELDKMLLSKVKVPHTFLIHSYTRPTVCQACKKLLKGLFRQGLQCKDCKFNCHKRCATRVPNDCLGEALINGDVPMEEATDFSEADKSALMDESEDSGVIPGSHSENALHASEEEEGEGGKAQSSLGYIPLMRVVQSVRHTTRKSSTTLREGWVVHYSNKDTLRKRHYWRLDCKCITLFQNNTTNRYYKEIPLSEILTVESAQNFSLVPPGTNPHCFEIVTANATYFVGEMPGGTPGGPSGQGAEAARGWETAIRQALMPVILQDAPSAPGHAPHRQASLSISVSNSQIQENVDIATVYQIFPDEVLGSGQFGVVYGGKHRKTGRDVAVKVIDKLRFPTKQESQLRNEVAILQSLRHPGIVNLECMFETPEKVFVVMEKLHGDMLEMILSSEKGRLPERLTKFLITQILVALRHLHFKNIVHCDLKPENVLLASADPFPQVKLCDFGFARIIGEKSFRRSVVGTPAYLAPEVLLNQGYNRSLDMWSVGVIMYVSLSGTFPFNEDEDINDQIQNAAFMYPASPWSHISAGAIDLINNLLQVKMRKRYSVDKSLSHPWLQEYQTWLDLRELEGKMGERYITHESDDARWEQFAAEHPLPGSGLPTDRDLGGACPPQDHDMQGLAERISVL
# Chain of EphB2(h) (P29323 19-1055): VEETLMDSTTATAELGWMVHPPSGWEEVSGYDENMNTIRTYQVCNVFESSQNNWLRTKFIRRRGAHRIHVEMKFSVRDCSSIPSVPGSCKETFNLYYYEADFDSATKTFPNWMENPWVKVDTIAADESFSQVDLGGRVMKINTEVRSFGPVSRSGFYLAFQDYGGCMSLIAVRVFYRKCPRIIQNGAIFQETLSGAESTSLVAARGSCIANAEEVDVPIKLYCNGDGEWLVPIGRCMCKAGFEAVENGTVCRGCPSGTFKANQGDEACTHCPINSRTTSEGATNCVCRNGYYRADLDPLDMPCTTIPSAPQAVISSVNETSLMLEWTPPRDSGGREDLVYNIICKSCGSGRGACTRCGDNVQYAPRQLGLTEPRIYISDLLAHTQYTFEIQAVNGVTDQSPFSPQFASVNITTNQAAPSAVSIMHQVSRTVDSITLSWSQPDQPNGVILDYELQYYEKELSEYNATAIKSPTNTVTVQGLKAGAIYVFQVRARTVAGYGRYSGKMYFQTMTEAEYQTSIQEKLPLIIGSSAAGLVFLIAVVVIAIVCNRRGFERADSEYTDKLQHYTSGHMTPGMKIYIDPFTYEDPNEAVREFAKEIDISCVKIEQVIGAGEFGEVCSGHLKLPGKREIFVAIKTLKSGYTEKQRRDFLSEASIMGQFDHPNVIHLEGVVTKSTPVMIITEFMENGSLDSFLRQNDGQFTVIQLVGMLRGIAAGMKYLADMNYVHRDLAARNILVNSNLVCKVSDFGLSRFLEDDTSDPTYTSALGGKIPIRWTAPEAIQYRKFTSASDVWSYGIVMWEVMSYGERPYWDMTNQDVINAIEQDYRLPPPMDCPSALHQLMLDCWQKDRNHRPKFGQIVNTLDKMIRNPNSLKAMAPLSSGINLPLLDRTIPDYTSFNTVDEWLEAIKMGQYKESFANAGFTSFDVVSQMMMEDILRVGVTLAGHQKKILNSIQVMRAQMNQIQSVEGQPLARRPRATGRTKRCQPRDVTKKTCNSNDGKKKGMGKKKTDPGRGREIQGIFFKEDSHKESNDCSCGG
smiles,measurement,setting,value
CN1CCCC1CCNC(=O)c1cn2c3c(c(N4CCC(c5cnccn5)C4)c(F)cc3c1=O)Oc1cc3ccccc3cc1-2 (stereo not drawn) [Compound A-1],remaining activity at 2.5 µM,PKCμ(h),49%
same,remaining activity at 2.5 µM,EphB2(h),96%
same,remaining activity at 2.5 µM,SAPK2b(h),70%
same,remaining activity at 2.5 µM,PKD2(h),79%
same,remaining activity at 2.5 µM,Syk(h),67%
same,remaining activity at 2.5 µM,PKCι(h),72%
CC(=O)N1CCN(c2ccc3c(=O)c(C(=O)NCCN4CCCC4)c4n(C)c5ccccc5n4c3n2)CC1 [Compound B-1],remaining activity at 2.5 µM,PKCμ(h),94%
same,remaining activity at 2.5 µM,EphB2(h),106%
same,remaining activity at 2.5 µM,SAPK2b(h),94%
same,remaining activity at 2.5 µM,PKD2(h),98%
same,remaining activity at 2.5 µM,Syk(h),111%
same,remaining activity at 2.5 µM,PKCι(h),95%
